The record followed here is US11872216B2, “Pharmaceutical formulation comprising cineole and amoxicillin” (priority 2016, dated 2024).

The experiment concerns amoxicillin-sensitive bacterial strain of Escherichia coli (ATCC 8739). The experiment in a line: Enzymatic test in agar medium (inhibition halos of disks with or without β-lactamase and cineole). In kind it is cell-based. How it is done:
This study is based on an enzymatic test first placing AMX combined with cineole in contact with ß-lactamases. The antibacterial activity of this antibiotic was then checked on an AMX-sensitive strain of Escherichia coli.
An amoxicillin-sensitive bacterial strain of Escherichia coli (ATCC 8739) was supplied by the national hygiene institute (INH-Rabat).
For each test performed, precultures of this E. coli strain of 24 h at 37° C. were prepared from this bacterial strain (frozen beforehand at −20° C.). From these precultures, bacterial inocula of 3.3×10^6 CFU/ml were prepared, adjusting the optical density to 540 nm.
Disks charged with antibiotics (diameter Ø=6 mm) were used for the enzymatic test in agar medium (AMX: amoxicillin and AMC: amoxicillin+clavulanic acid). They were supplied by the national hygiene institute (INH-Rabat). The AMX used for the enzymatic test in liquid medium was supplied by Sigma Aldrich (France).
The cineole was supplied by Sigma Aldrich (France). […]
Starting with a 24 h sensitive preculture of E. coli, eighteen Petri dishes of the agar MH medium were inoculated by surface plating. […] 10 μl of β-lactamase at 0.03 U/ml and 10 μl of cineole at 0.002 μl/ml were added to the surface of each of these three disks. • After incubation of the eight Petri dishes for 18 h at 37° C., the diameters of the inhibition halos were measured.

Each structure is given as a SMILES string. Where “and” joins values, the source holds several entries; their conditions need not be identical. Equal values may be shown once.

Consider `CC12CCC(CC1)C(C)(C)O2` [cineole, 1,8-cineole], for which, where the note is “microdilution method”, the “infra-inhibitory concentration (highest concentration without any inhibition)” value is reported as approximately 0.002 μl/ml.
Consider `CC1(C)S[C@@H]2[C@H](NC(=O)[C@H](N)c3ccc(O)cc3)C(=O)N2[C@H]1C(=O)O` [amoxicillin, Amoxicillin], for which the “Diameters of the halos” value (disks AMX 20 μg, AMC 30 μg, β-lactamase 0.03 U/ml, cineole 0.002 μl/ml where added, 18 h at 37° C., 6 mm is the diameter of the disk, listed as AMX) was 15 mm and 15 ± 1.0 mm.
